Columns and labels:
[1] = In vitro stability in human plasma (HPLC detection); format: in vitro ADME; details: 37° C., read-out: half-life of degradation with release of the active ingredient compound (A)
Description: (§1) c) In Vitro Stability in Rat Plasma and Human Plasma (HPLC Detection):
(§2) 0.5 mg of substance is dissolved in 1 ml of dimethyl sulfoxide/water 1:1. 500 μl of this sample solution are mixed with 500 μl of rat plasma at 37° C. and shaken. A first sample (10 μl) is immediately taken for HPLC analysis. In the period up to 2 h after the start of incubation, further aliquots are taken after 2, 5, 10, 30, 60 and 90 min, and the contents of the respective test substance and of the active ingredient compound (A) liberated therefrom are determined.
(§3) Agilent 1100 with DAD (G1314A), binary pump (G1312A), autosampler (G1329A), column oven (G1316A), thermostat (G1330A); column: Kromasil 100 C18, 250 mm×4.6 mm, 5 μm; column temperature: 30° C.; mobile phase A: water+5 ml of perchloric acid/liter, mobile phase B: acetonitrile.

[2] = Stability in buffer at various pH values (HPLC); format: physicochemical; details: buffer pH 4, 37° C., acetonitrile/buffer
Description: 0.25 mg of the test substance is weighed into a 2 ml HPLC vial and 0.5 ml of acetonitrile is added. The substance is dissolved by putting the sample vessel in an ultrasonic bath for about 10 seconds. Then 0.5 ml of the respective buffer solution is added, and the sample is again treated in the ultrasonic bath.
pH 4.0:1 liter of Millipore water is adjusted to pH 4.0 with 1 N hydrochloric acid;
pH 7.4: 90 g of sodium chloride, 13.61 g of potassium dihydrogen phosphate and 83.35 g of 1 M sodium hydroxide solution are made up to 1 liter with Millipore water and then diluted 1:10.
10 μl portions of the test solution are analyzed by HPLC for their content of unchanged test substance every hour over a period of 24 hours at 37° C. The percentage areas of the appropriate peaks are used for quantification.
Agilent 1100 with DAD (G1314A), binary pump (G1312A), autosampler (G1329A), column oven (G1316A), thermostat (G1330A); column: Kromasil 100 C18, 125 mm×4 mm, 5 μm; column temperature: 30° C.; mobile phase A: water+5 ml of perchloric acid/liter, mobile phase B: acetonitrile.

[3] = In vitro stability in rat plasma (HPLC detection); format: in vitro ADME; details: 37° C., read-out: half-life of degradation with release of the active ingredient compound (A)
Description: as §1, §2, §3

## CCCCNCCCC(=O)N(C[C@H]1CN(c2ccc(N3CCOCC3=O)cc2F)C(=O)O1)C(=O)c1ccc(Cl)s1 [Example 22, N-[4-(Butylamino)butanoyl]-5-chloro-N-({(5S)-2-oxo-3-[2-fluoro-4-(3-oxomorpholin-4-yl)phenyl]-1,3-oxazolidin-5-yl}methyl)thiophene-2-carboxamide]
[1]
  half-life at 0.25 mg/mL: < 2 min
[2]
  time stable in solution at pH 4: more than 16 h
[3]
  half-life at 0.25 mg/mL: < 2 min

Reference: US20110172232A1, “AMINOACYL PRODRUGS AS AN ACTIVE PHARMACEUTICAL INGREDIENT FOR THROMBOEMBOLIC DISORDERS” (Bayers Schering Pharma Aktiengesellschaft, priority 2007, published 2011)
